From patent publication US12037325B2, “1,2-diaminobenzimidazole derivative” (Carna Biosciences, Inc., priority 2021, dated 2024)
Counter-ions that a name gives are not always drawn.

Experiments:
STING = molecular target: T1, STING (Homo sapiens, UniProt Q86WV6, G230A/H232R/R293Q/R71H); test: Inhibition test of human IFN-β production by cGAMP stimulation in THP-1 cells; type: cell-based; details: PMA-treated THP-1 cells, 2'3'-cGAMP transfection, 18 hours, ELISA of culture supernatant; read-out: Inhibitory effect on the IFN-β production
T1 construct: host or cells: THP-1 cells, PMA-treated
Description: The human monocytic cell line THP-1 cells were used to measure the amount of IFN-β produced when stimulated with the endogenous ligand cGAMP, thereby evaluating the inhibitory activity of the test compounds on STING activation.
After THP-1 cells (manufactured by ATCC) were seeded in 96-well plates, PMA (manufactured by Santa Cruz Biotechnology, Inc.) adjusted to a concentration after addition of 100 nM was added and cultured overnight at a 37° C. in a 5% CO2 incubator (10% FBS, 50 U/mL penicillin/50 μg/mL streptomycin-containing RPMI 1640 medium). To each well of the plate, a test compound solution adjusted to a final concentration of 0.001-1 μM of the test compound was added and cultured in the CO2 incubator for 1 hour (DMSO final concentration of 0.1%). 0.12 μg/well of 2′3′-cGAMP (manufactured by ChemieTek, #CT-CGAMP) was introduced into the cells by transfection method using Lipofectamine 2000 (manufactured by Invitrogen) and cultured in the CO2 incubator for another 18 hours. After collecting the culture supernatant from each well, the amount of human IFN-P production in the culture supernatant was measured by ELISA method using R&D human IFN-β Duoset (manufactured by R&D systems).
(§1) Method for Evaluating Inhibitory Activity. Taking the amount of human IFN-β production in the group without test compounds added and with cGAMP added as 100% and the amount of human IFN-β production in the group without test compounds added and without cGAMP added as 0%, IC50 values were determined by regression analysis of the inhibition rate calculated from the amount of human IFN-β production at each compound concentration and the test compound concentration (logarithm).
Evaluation Result. […] The inhibitory effect on the IFN-β production was indicated by marking an IC50 value of less than 0.01 μM with ***, that of 0.01 μM or more and less than 0.1 μM with **, that of 0.1 μM or more and less than 1 μM with *, and that of 1 μM or more with “-”, and NT was marked as unmeasured.

hSTING = molecular target: T2, hSTING (Homo sapiens, UniProt Q86WV6); test: Inhibition test of intracellular human STING (hSTING) pathways using reporter cells (HEK-Blue ISG, SEAP reporter); type: cell-based; details: stimulation with Compound 3 (10 nM), 21 hours; for IC50: read-out: Inhibitory Activity on hSTING
T2 construct: host or cells: HEK-Blue ISG cells (HEK293-derived SEAP reporter line)
Description: Since STING activates the transcription factor IRF3 by ligand stimulation, the activity of STING can be evaluated by a reporter assay using a secreted alkaline phosphatase (SEAP reporter) incorporated downstream of the IRF-inducible promoter. In other words, the hSTING inhibitory activity of the test compounds was evaluated using HEK-Blue™ ISG cells (manufactured by InvivoGen, #hkb-isg-1) into which the SEAP reporter was incorporated. The activation of hSTING was performed by stimulation with the small molecule ligand, Compound 3 as described in the literature (Ramanjulu, J. M., et al., Nature. 2018, 564 (7736), 439-443).
The HEK-Blue™ ISG cells were seeded in 96-well plates and cultured overnight at 37° C. in a 5% CO2 incubator. To each well of the cell culture plates, a test compound solution adjusted to have a final concentration of 0.1 to 10 μM was added and cultured in the CO2 incubator for 1 hour. Then, the Compound 3 (final concentration of 10 nM) was added thereto and further cultured in the CO2 incubator for 21 hours. After collecting the culture supernatant from each well, the reporter activity was measured by luminous reaction of alkaline phosphatase.
as §1, with “reporter activity” for “amount of human IFN-β production”, “Compound 3” for “cGAMP”
Evaluation Result. […] The inhibitory effect on the hSTING was indicated by marking an IC50 value of less than 0.1 μM with ***, that of 0.1 μM or more and less than 1 μM with **, that of 1 μM or more and less than 10 μM with *, and that of 10 μM or more with “-”.

T2 sequence (Q86WV6 whole entry H232R): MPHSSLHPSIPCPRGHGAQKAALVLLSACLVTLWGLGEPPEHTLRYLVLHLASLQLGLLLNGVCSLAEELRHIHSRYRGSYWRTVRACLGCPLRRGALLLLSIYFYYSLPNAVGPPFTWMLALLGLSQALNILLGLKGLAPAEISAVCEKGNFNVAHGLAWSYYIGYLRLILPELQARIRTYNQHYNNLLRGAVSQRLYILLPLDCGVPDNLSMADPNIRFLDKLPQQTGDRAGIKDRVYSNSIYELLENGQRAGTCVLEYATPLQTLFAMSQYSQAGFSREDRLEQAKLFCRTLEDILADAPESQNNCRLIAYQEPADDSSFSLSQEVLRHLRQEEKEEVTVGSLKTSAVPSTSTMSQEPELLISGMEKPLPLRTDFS
T1 sequence (Q86WV6 whole entry R71H/G230A/H232R/R293Q): as the sequence (Q86WV6 whole entry H232R) above, with R71H, G230A, R293Q counted along it

IC50 (STING) | IC50 (hSTING) | Inhibitory Activity on hSTING (hSTING) | Structure (SMILES)
10 to 100 nM | < 100 nM |  | CCNn1c(Nc2c[nH]c3c(F)cc(F)cc23)nc2cc(C(F)(F)F)cc(F)c21 [Example 22, N2-(5,7-difluoro-1H-indol-3-yl)-N1-ethyl-7-fluoro-5-(trifluoromethyl)-1H-benzo[d]imidazole-1,2-diamine hydrochloride]
< 10 nM | < 100 nM |  | CCNn1c(Nc2c[nH]c3c(F)cc(F)cc23)nc2cc(C(F)(F)F)ccc21 [Example 19, N2-(5,7-difluoro-1H-indol-3-yl)-N1-ethyl-5-(trifluoromethyl)-1H-benzo[d]imidazole-1,2-diamine]
10 to 100 nM | < 100 nM |  | CCNn1c(Nc2c[nH]c3ccc(F)cc23)nc2cc(C(F)(F)F)ccc21 [Example 29, N1-ethyl-N2-(5-fluoro-1H-indol-3-yl)-5-(trifluoromethyl)-1H-benzo[d]imidazole-1,2-diamine]
 |  | * * | CC(C)Nn1c(Nc2c[nH]c3ccc(Cl)cc23)nc2cc(C(F)(F)F)ccc21 [Example 20, N2-(5-chloro-1H-indol-3-yl)-N1-isopropyl-5-(trifluoromethyl)-1H-benzo[d]imidazole-1,2-diamine]
100 to 1000 nM | < 100 nM |  | Nn1c(Nc2c[nH]c3c(F)cc(F)cc23)nc2cc(C(F)(F)F)ccc21 [Example 21, N2-(5,7-difluoro-1H-indol-3-yl)-5-(trifluoromethyl)-1H-benzo[d]imidazole-1,2-diamine hydrochloride]
10 to 100 nM | < 100 nM |  | CCNn1c(Nc2c[nH]c3cc(F)c(F)cc23)nc2cc(C(F)(F)F)cc(F)c21 [Example 23, N2-(5,6-difluoro-1H-indol-3-yl)-N1-ethyl-7-fluoro-5-(trifluoromethyl)-1H-benzo[d]imidazole-1,2-diamine hydrochloride]
< 10 nM | < 100 nM |  | Cl.[2H]C([2H])([2H])Nn1c(Nc2c[nH]c3ccc(Cl)cc23)nc2cc(C(F)(F)F)ccc21 [Example 25, N2-(5-chloro-1H-indol-3-yl)-N1-(methyl-d3)-5-(trifluoromethyl)-1H-benzo[d]imidazole-1,2-diamine hydrochloride]

Continued, compound first:

Structure (SMILES) | IC50 (STING) | IC50 (hSTING) | Inhibitory Activity on hSTING (hSTING)
CNn1c(Nc2c[nH]c3c(F)cc(F)cc23)nc2cc(C(F)(F)F)ccc21 [Example 5, N2-(5,7-difluoro-1H-indol-3-yl)-N1-methyl-5-(trifluoromethyl)-1H-benzo[d]imidazol-1,2-diamine] | < 10 nM | < 100 nM | 
CCNn1c(Nc2c[nH]c3ccc(Cl)cc23)nc2cc(C(F)(F)F)cc(F)c21 [Example 14, N2-(5-chloro-1H-indol-3-yl)-N1-ethyl-7-fluoro-5-(trifluoromethyl)-1H-benzo[d]imidazole-1,2-diamine] | < 10 nM | < 100 nM | 
CNn1c(Nc2c[nH]c3ccc(F)cc23)nc2cc(C(F)(F)F)ccc21 [Example 16, N2-(5-fluoro-1H-indol-3-yl)-N1-methyl-5-(trifluoromethyl)-1H-benzo[d]imidazole-1,2-diamine hydrochloride] | < 10 nM | < 100 nM | 
CNn1c(Nc2c[nH]c3cc(F)c(F)cc23)nc2cc(C(F)(F)F)c(F)cc21 [Example 10, N2-(5,6-difluoro-1H-indol-3-yl)-6-fluoro-N1-methyl-5-(trifluoromethyl)-1H-benzo[d]imidazole-1,2-diamine] | 10 to 100 nM | 100 to 1000 nM | 
Nn1c(Nc2c[nH]c3ccc(F)c(F)c23)nc2cc(C(F)(F)F)ccc21 [Example 11, N2-(4,5-difluoro-1H-indol-3-yl)-5-(trifluoromethyl)-1H-benzo[d]imidazole-1,2-diamine hydrochloride] | 10 to 100 nM | 100 to 1000 nM | 
CNn1c(Nc2c[nH]c3cc(F)c(C)cc23)nc2cc(C(F)(F)F)ccc21 [Example 18, N2-(6-fluoro-5-methyl-1H-indol-3-yl)-N1-methyl-5-(trifluoromethyl)-1H-benzo[d]imidazole-1,2-diamine] | < 10 nM | < 100 nM | 
